Assay results as given in publication PMC2994747, “Molecular Characterization of c-Abl/c-Src Kinase Inhibitors Targeted against Murine Tumour Progenitor Cells that Express Stem Cell Markers” (PLoS ONE, 2010).
Like-named read-outs stand apart in the source and are kept apart here.

Key:
[1] = target: T1, c-Abl (Homo sapiens, UniProt P00519); experiment: Abl filter-binding kinase assay (Abtide, [γ-32P]ATP); type: biochemical; settings: isolated Abl; calculated from ID50, ATP-competitive; E0 0.005, S0 0.012 µM
T1 construct: His tag; purchased Upstate (Lake Placid, NY, USA)
Protocol: (§1) Baculovirus-produced recombinant purified his-tagged active against human Src and Abl were purchased from Upstate (Lake Placid, NY, USA).
(§2) Src activity was measured in a filter-binding assay using the Src Assay Kit (Upstate, Lake Placid, NY, USA), according to the manufacturer's protocol, using the specific Src peptide substrate [[…]] in the presence of 0.125 pmol of Src and 0.160 pmol of [γ-^32P]ATP. Abl activity was measured in a filter-binding assay using an Abl specific peptide substrate (Abtide, Upstate). Reaction conditions were (in a final volume of 10 µl): 25 mM Tris-HCl pH 7.5, 1 mM DTT, 0.012 µM [γ-^32P]ATP, 0.022 µM c-Abl. Reactions were incubated 10 min at 30°C.The samples (9 µl) were spotted on paper cellulose filters which were washed according to the manufacturer's protocol. Filter-bound radioactivity was measured by liquid scintillation with a Microbeta-Trilux apparatus (PerkinElmer, Waltham, MA, USA).
(§3) The ID50 were converted to Ki according to a competitive mechanism with respect to the substrate ATP. […] Since (i) the ATP concentration was limiting, i.e., [ATP], Km(ATP), and (ii) the enzyme concentration was not negligible with respect to the ATP concentration, the classical Cheng-Prusoff relationship was not applicable. Consequently, Ki values were calculated according to [drawing 3] (2) where S0 is the concentration of the competing substrate (ATP) and E0 is the concentration of the enzyme. Each experiment was done in triplicate and mean values were used for the interpolation. Curve fitting was performed with the program GraphPad Prism.

[2] = target: T2, c-Src (Homo sapiens, UniProt P12931); experiment: Src filter-binding kinase assay (Src Assay Kit); type: biochemical; settings: isolated Src; calculated from ID50, ATP-competitive; E0 0.005, S0 0.012 µM
T2 construct: His tag; purchased Upstate (Lake Placid, NY, USA)
Protocol: as §1, §2, §3

[3] = tested on: A2C12; experiment: MTS cell viability assay; type: cell-based, mouse
Protocol: (§4) Three human and eleven murine cancer cell lines were used. The human NSCLC cell line A549 (ACC 107) and the human colorectal carcinoma cell line CaCo2 (ACC 169) were obtained from Deutsche Sammlung von Mikroorganismen und Zellkulturen (DSMZ, Braunschweig, Germany). The human hepatocellular carcinoma cell line HepG2 (HB-8065) was obtained from American Type Culture Collection (Manassas, VA, USA). The 11 murine NSCLC cell lines were established as described recently. Cells were grown in monolayer cultures in DMEM containing 10% foetal calf serum, 4 mmol/l L-glutamine and 2% Penicillin/Streptomycin at 37°C in a humidified atmosphere of 95% air and 5% CO2.
(§5) Cell culture viability was monitored by CellTiter96® AQueous One Solution Cell Proliferation Assay (Promega GmbH, Mannheim, Germany). The cells were seeded in triplicates in 96-well microtitre plates and treated with the dual kinase inhibitors or vehicle (0.2% DMSO). After 24 h or 96 h of treatment the MTS tetrazolium reagent was added to the cells and incubated for 1 h. Absorbance at 490 nm was assayed with a Victor3 Wallac 1420 Multilabel counter (PerkinElmer, Waltham, MA, USA).

[4] = tested on: BetaD5; experiment: MTS cell viability assay; type: cell-based, mouse
Protocol: as §4, §5

[5] = tested on: GammaA3; experiment: MTS cell viability assay; type: cell-based, mouse
Protocol: as §4, §5

[6] = tested on: GammaD12; experiment: MTS cell viability assay; type: cell-based, mouse; settings: MTS
Protocol: as §4, §5

[7] = tested on: A549; experiment: MTS cell viability assay; type: cell-based, human
Protocol: as §4, §5

[8] = tested on: CaCo2; experiment: MTS cell viability assay; type: cell-based, human
Protocol: as §4, §5

[9] = tested on: HepG2; experiment: MTS cell viability assay; type: cell-based, human
Protocol: as §4, §5

[10] = tested on: A2C12; experiment: Cell cycle analysis by flow cytometry; type: cell-based, mouse; settings: IC50 concentration, 96 h
Protocol: (§6) CycleTEST™ PLUS DNA Reagent Kit (Becton Dickinson GmbH, Heidelberg, Germany) for cell cycle analysis was used, according to the instructions of the manufacturer. Briefly, the cells were harvested with trypsin, washed with PBS, and resuspended in CycleTEST Buffer. The cells were centrifuged and resuspended in solution A. After incubation for 10 min at room temperature, solution B was added and incubated. After adding solution C, the samples were incubated at 4°C protected from light. The samples were stored on ice and protected from light until analysis by FACScan flow cytometer (Becton Dickinson GmbH, Heidelberg, Germany).

[11] = tested on: BetaD5; experiment: Cell cycle analysis by flow cytometry; type: cell-based, mouse; settings: IC50 concentration, 96 h
Protocol: as §6

[12] = tested on: GammaA3; experiment: Cell cycle analysis by flow cytometry; type: cell-based, mouse; settings: IC50 concentration, 96 h
Protocol: as §6

[13] = tested on: GammaD12; experiment: Cell cycle analysis by flow cytometry; type: cell-based, mouse; settings: IC50 concentration, 96 h
Protocol: as §6

[14] = tested on: A549; experiment: Cell cycle analysis by flow cytometry; type: cell-based, human; settings: IC50 concentration, 96 h
Protocol: as §6

[15] = tested on: CaCo2; experiment: Cell cycle analysis by flow cytometry; type: cell-based, human; settings: IC50 concentration, 96 h
Protocol: as §6

[16] = tested on: HepG2; experiment: Cell cycle analysis by flow cytometry; type: cell-based, human; settings: IC50 concentration, 96 h
Protocol: as §6

[17] = Mus musculus, 24 h, read-out: Calculated IC50 after single treatment for 24 h
[18] = Mus musculus, 96 h, read-out: Calculated IC50 after daily treatment for 96 h
[19] = 24 h, read-out: Calculated IC50 after single treatment for 24 h
[20] = 96 h, read-out: Calculated IC50 after daily treatment for 96 h

T1 sequence (P00519 whole entry): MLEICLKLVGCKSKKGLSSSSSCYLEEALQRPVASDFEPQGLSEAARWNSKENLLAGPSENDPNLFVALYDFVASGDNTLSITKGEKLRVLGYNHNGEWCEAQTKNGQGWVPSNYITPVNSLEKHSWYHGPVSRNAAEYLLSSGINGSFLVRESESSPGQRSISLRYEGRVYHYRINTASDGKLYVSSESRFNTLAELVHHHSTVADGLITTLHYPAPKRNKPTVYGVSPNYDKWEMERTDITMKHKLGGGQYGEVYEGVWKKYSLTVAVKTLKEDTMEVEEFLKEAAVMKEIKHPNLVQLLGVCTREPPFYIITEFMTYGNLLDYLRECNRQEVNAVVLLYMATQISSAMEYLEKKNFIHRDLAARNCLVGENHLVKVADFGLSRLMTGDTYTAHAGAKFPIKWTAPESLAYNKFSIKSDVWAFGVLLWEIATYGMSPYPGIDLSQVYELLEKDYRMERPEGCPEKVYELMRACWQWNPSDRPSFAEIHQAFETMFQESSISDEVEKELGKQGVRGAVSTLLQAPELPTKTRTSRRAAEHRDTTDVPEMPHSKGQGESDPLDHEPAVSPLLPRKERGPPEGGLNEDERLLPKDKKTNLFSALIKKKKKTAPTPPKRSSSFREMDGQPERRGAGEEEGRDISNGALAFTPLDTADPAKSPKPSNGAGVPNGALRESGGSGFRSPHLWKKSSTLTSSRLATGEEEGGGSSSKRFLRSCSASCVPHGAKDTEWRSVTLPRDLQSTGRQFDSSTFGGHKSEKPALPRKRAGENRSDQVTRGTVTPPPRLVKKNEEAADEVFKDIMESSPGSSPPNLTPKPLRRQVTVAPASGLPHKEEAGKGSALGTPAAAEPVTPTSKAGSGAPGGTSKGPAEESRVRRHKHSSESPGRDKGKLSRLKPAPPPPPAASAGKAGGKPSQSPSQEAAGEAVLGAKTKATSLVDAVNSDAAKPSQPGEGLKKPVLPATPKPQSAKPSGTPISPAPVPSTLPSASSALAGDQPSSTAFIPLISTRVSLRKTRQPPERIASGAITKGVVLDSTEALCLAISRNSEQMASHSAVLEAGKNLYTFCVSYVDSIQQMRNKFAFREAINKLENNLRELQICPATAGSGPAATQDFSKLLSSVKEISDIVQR
T2 sequence (P12931 whole entry): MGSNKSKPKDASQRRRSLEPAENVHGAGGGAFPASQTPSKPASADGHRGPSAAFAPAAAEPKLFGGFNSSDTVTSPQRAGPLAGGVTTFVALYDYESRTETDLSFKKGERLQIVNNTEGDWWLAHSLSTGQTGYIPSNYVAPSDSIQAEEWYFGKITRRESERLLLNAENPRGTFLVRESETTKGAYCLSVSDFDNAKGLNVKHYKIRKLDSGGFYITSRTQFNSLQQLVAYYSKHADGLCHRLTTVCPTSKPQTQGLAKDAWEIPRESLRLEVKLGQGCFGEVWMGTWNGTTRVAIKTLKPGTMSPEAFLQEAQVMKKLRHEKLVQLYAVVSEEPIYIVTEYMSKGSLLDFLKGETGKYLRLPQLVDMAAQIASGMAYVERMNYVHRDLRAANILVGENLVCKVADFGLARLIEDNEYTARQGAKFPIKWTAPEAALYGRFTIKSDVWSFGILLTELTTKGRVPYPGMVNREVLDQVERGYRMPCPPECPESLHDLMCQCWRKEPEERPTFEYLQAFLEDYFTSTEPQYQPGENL

Structure (SMILES)	Ki [1] [µM]	Cells in G1 phase [10] [%]	Cells in G2 phase [10] [%]	Cells in S phase [10] [%]	Cells in G1 phase [11] [%]	Cells in G2 phase [11] [%]	Cells in S phase [11] [%]	Cells in G1 phase [12] [%]	Cells in G2 phase [12] [%]	Cells in S phase [12] [%]	Cells in G1 phase [13] [%]	Cells in G2 phase [13] [%]	Cells in S phase [13] [%]	Cells in G1 phase [14] [%]	Cells in G2 phase [14] [%]	Cells in S phase [14] [%]	Cells in G1 phase [15] [%]	Cells in G2 phase [15] [%]	Cells in S phase [15] [%]	Cells in G1 phase [16] [%]	other results
Cc1nc(Nc2cccc(F)c2)c2cnn(CC(Cl)c3ccccc3)c2n1 (centres unmarked) [Si166]	0.151	56.1	13.6	30.4	68.3	20.8	10.9	74.4	14.1	11.5	39.5	10.2	50.3	63.2	6.6	30.2	56.7	17.8	25.5	54.6	Ki [2]: 0.338 µM; IC50 [3, 17]: 16.6 ± 1.2 µM; IC50 [3, 18]: 11.5 ± 0.5 µM; IC50 [4, 17]: 14 ± 2.1 µM; IC50 [4, 18]: 10.6 ± 0.7 µM; IC50 [5, 17]: 17 ± 2.3 µM; IC50 [5, 18]: 19 ± 1.3 µM; IC50 [6, 17]: 18.1 ± 1.4 µM; IC50 [6, 18]: 15.9 ± 1.4 µM; IC50 ([7]; Homo sapiens, A549, 24 h, 24 h, read-out: Calculated IC50 after single treatment for 24 h): 20.2 ± 2.5 µM; IC50 ([7]; Homo sapiens, A549, 96 h, 96 h, read-out: Calculated IC50 after daily treatment for 96 h): 8.3 ± 0.3 µM; IC50 ([8]; Homo sapiens, Caco-2, 24 h, read-out: Calculated IC50 after single treatment for 24 h): 37.7 ± 2.4 µM; IC50 ([8]; Homo sapiens, Caco-2, 96 h, read-out: Calculated IC50 after daily treatment for 96 h): 6 ± 0.7 µM; IC50 ([9]; Homo sapiens, 24 h, read-out: Calculated IC50 after single treatment for 24 h): 37.7 ± 2.4 µM; IC50 ([9]; Homo sapiens, 96 h, read-out: Calculated IC50 after daily treatment for 96 h): 10.8 ± 0.9 µM; Cells in G2 phase [16]: 9.6%; Cells in S phase [16]: 35.8%
CSc1nc(NCCc2ccccc2)c2cnn(C=Cc3ccccc3)c2n1 [Si40]	0.45	75.7	9.8	14.6	–	–	–	53.4	15.4	31.3	28.4	2.7	68.9	81	3.8	15.2	52.5	10.3	37.2	–	IC50 [3, 19]: > 100 µM; IC50 [3, 20]: 7 ± 0.5 µM; IC50 [4, 19]: 43.6 ± 3.6 µM; IC50 [4, 20]: 12.9 ± 2.9 µM; IC50 [5, 19]: > 100 µM; IC50 [5, 20]: > 20 µM; IC50 [6, 19]: 26 ± 3 µM; IC50 [6, 20]: 12.7 ± 0.4 µM; IC50 [7, 19]: > 100 µM; IC50 [7, 20]: 16.2 ± 2.1 µM; IC50 [8, 19]: > 100 µM; IC50 [8, 20]: 0.4 ± 0.1 µM; IC50 [9, 19]: > 100 µM
Fc1ccc(C(Cl)Cn2ncc3c(Nc4cccc(Cl)c4)ncnc32)cc1 (centres unmarked) [Si104]	–	45.8	13.8	40.4	57.4	25.3	17.3	61.9	16.9	21.2	35.3	7.8	56.9	68.1	5.5	26.4	51	10.9	38.1	56.2	IC50 [3, 19]: 16.2 ± 1 µM; IC50 [3, 20]: 6.5 ± 0.3 µM; IC50 [4, 19]: 12.6 ± 2.6 µM; IC50 [4, 20]: 12.4 ± 1 µM; IC50 [5, 19]: 18.3 ± 0.7 µM; IC50 [5, 20]: 11.4 ± 0.3 µM; IC50 [6, 19]: 13.2 ± 0.9 µM; IC50 [6, 20]: 9.2 ± 0.5 µM; IC50 [7, 19]: 17.8 ± 2.6 µM; IC50 [7, 20]: 6.8 ± 0.1 µM; IC50 [8, 19]: 40.8 ± 1.7 µM; IC50 [8, 20]: 5.8 ± 0.2 µM; IC50 [9, 19]: 40.9 ± 1.7 µM; IC50 [9, 20]: 10.3 ± 0.7 µM; Cells in G2 phase [16]: 8.1%; Cells in S phase [16]: 35.6%
